Data as given in patent US20250186461A1, “METHODS AND COMPOSITIONS FOR TREATING AND/OR PREVENTING HERNIAS” (Northwestern University, priority 2023, published 2025).

What was measured:
PGR = target: T1, PGR (Homo sapiens, UniProt P06401); details: cited from earlier work
T1 sequence (P06401 1-933): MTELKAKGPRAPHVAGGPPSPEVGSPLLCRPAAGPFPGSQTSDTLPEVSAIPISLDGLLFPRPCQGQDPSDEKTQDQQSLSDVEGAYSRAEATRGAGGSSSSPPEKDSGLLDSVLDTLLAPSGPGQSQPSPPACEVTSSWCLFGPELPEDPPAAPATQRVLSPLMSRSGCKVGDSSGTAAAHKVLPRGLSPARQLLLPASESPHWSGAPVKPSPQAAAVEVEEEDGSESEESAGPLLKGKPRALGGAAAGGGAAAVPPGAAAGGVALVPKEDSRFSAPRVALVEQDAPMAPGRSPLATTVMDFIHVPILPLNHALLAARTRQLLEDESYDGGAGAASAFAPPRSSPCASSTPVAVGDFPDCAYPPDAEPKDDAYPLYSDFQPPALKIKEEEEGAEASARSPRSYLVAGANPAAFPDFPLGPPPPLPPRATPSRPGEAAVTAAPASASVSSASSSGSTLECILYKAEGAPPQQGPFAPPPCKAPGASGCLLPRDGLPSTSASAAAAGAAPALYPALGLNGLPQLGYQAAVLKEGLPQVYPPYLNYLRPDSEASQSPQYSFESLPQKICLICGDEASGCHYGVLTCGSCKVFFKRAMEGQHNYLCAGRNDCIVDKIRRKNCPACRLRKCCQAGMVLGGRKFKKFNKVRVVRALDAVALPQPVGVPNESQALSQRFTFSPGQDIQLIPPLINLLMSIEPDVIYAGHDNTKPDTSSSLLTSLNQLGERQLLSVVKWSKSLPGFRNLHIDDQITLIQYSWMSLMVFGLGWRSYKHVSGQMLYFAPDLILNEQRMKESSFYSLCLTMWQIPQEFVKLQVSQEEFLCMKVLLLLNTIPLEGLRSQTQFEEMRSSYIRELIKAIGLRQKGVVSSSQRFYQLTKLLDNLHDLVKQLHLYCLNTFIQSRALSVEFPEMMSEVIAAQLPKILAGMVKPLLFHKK

[1] = target: T2, glucocorticoid receptor (GR) (Homo sapiens, UniProt P04150); details: cited from earlier work
T2 sequence (P04150 1-777): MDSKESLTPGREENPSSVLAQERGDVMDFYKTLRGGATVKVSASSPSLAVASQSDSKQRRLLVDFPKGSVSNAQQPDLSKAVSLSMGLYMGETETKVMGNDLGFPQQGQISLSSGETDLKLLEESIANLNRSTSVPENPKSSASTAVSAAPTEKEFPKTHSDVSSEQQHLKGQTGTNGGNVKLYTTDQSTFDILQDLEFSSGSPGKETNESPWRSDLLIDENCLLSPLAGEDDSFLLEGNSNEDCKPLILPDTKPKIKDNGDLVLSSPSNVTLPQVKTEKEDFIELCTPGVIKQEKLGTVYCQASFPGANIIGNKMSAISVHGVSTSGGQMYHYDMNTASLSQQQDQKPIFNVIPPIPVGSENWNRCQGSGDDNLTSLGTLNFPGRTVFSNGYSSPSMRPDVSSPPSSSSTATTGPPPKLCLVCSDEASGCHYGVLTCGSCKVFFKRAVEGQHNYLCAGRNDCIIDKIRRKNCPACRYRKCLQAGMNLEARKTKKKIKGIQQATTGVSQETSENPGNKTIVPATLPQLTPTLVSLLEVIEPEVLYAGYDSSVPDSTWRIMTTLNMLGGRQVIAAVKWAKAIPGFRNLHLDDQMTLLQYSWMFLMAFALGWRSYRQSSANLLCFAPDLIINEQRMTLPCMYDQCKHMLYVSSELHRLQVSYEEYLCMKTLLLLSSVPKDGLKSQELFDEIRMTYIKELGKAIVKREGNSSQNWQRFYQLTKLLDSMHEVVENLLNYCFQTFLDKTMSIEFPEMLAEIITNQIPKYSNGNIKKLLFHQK

WT mice = test: E2/P4-induced hernia formation in WT mice; assay type: in vivo, mouse; details: WT male mice, concurrent treatment with P4+E2
Description: All placebo-treated Arom^hum mice developed hernias starting from 5 weeks of age. None of the WT littermates developed hernias. […] The mouse scrotum is connected to the peritoneal cavity with a narrow funicular (or inguinal) canal, with walls composed of LAM tissue. Structurally normal LAM tissue is essential to maintain the tone of this canal and prevent herniation of the bowel.
Experiment 1a1: Does the addition of P4 to E2 treatment accelerate LAM fibrosis and hernia formation in WT mice? It was shown that treatment of male WT mice with extremely high doses of systemic estrogens starting around or after the onset of puberty caused inguinal hernia in one third to half of these animals^23-25. We hypothesize that this effect is primarily mediated by the E2 induction of PGR expression in LAM fibroblasts. Male mice have readily detectable P4 levels in the circulation and LAM tissue to activate PGR in LAM fibroblasts (FIG. 6). If this were true, the addition of pharmacologic quantities of P4 (75 mg/pellet for 12-week release)^73 to E2 (0.3 mg/pellet for 12-week release)^23-25 in WT mice should accelerate this phenotype. Our ongoing preliminary study, whereby a 6-week treatment with P4+E2 induced large inguinal hernia in all WT mice (FIG. 7A), supports the following experiment. Long-term (8 weeks or longer) treatment with E2 only is anticipated to cause hernias in up to half of WT mice based on previous findings^23-25. We will determine whether P4+E2 treatment over 12 weeks will give rise to larger hernias in a higher number of mice compared with E2-only treatment. […] See Statistical Methods above for sample size calculation. Hernia surface area will be measured using a digital caliper and calculated as previously described (length×width)^19. At the designated endpoints, LAM and UAM (control) from each mouse will be resected, with one-half of the tissue snap-frozen in liquid nitrogen, and the other half fixed in 4% phosphate-buffered paraformaldehyde for histological and IHC analyses (see below). […]

Compound | P4/PGR antagonism and PGR selectivity (PGR) | anti-glucocorticoid activity [1] | prevention of P4+E2-induced large hernias (WT mice)
CC(=O)O[C@]1(C(C)=O)CC[C@H]2[C@@H]3CCC4=CC(=O)CCC4=C3[C@@H](c3ccc(N(C)C)cc3)C[C@@]21C [UPA, Ulipristal acetate] | very high PGR selectivity | extremely low anti-glucocorticoid activity | –
CC#C[C@]1(O)CC[C@H]2[C@@H]3CCC4=CC(=O)CCC4=C3[C@@H](c3ccc(N(C)C)cc3)C[C@@]21C [RU486, Mifepristone] | – | has anti-glucocorticoid effects | completely prevented
